Source: publication PMC5618418, “Pharmacokinetics of Jaspine B and Enhancement of Intestinal Absorption of Jaspine B in the Presence of Bile Acid in Rats” (Marine Drugs, 2017)
Read-outs that look alike come from different tables or passages of the source.

Experiments:
786-O = test system: 786-O; parameters: method as in doi:10.5352/JLS.2016.26.12.1392; settings: 786-O renal carcinoma; cited from earlier work
[1] = test system: metastatic melanoma cell growth in the lungs; parameters: method as in PMID 22451302; settings: mice, intravenous (equivalent to 6.7 mg/kg) on 4th, 8th, 12th day, read on day 14; cited from earlier work
MCF-7 = test system: MCF-7; parameters: method as in doi:10.5352/JLS.2016.26.12.1392; settings: MCF-7 breast cancer cells; cited from earlier work
[2] = Pharmacokinetics after oral administration with or without taurocholate in control and bile-depleted rats; assay type: in vivo; settings: male, rat, plasma, 30 mg/kg; for bioavailability: oral 30 mg/kg vs IV 10 mg/kg, read-out: BA (oral bioavailability); for AUC(0-inf) / MRT / Tmax / half-life / AUC(0-t) / Cmax: oral 30 mg/kg; for AUC(0-t): read-out: AUC12h
Procedure: Male SD rats (aged 8–9 weeks, weighing 250–300 g) were obtained from Samtako Bio Korea, Inc. (Osan, Korea). The rats were acclimatized for 1 week in a temperature-controlled room (23 ± 2 °C) with a 12-h illumination cycle. Food and water were given ad libitum. All animal procedures were approved by the Animal Care and Use Committee of the Kyungpook National University (No. 2015-0064). The rats were fasted for at least 12 h before the oral administration of drugs.
The femoral artery, femoral vein, and bile duct were cannulated with polyethylene tubes (PE-50 and PE-10; Jungdo, Seoul, Korea) under light anesthesia with isoflurane.
For oral dosing, Jaspine B was dissolved in a vehicle containing DMSO: PEG400: saline (2:4:4, v/v/v) and was administered by oral gavages at a single dose of 30 mg/kg of Jaspine B concomitantly with or without 60 mg/kg TC (vehicle volume, 3 mL/kg) to the control and bile-depleted rats. Bile depletion was accomplished with 4 h drainage of bile through the bile cannula, which was cannulated to the bile duct using PE-10 tubing.
Blood samples (approximately 250 μL each) were collected from the femoral artery at 0, 0.25, 0.5, 1, 1.5, 2, 4, 8, and 12 h following the oral administration of Jaspine B. After centrifugation of blood samples at 13,200 rpm for 10 min, plasma samples (50 μL) were collected and stored at −80 °C until the analysis by liquid chromatography tandem-mass spectrometry (LC-MS/MS). Aliquots (50 μL) of plasma samples were added to 250 μL of acetonitrile containing 0.5 ng/mL of berberine (an internal standard). After vortexing for 10 min and centrifugation at 13,200 rpm for 5 min, an aliquot (10 μL) of the supernatant was injected directly into the LC-MS/MS system. The standard curve range was 5–2000 ng/mL and the concentrations of quality control (QC) samples were 60, 300, and 2000 ng/mL.
Pharmacokinetic parameters were determined using a non-compartmental analysis (WinNonlin® 2.0; Pharsight, Mountain View, CA, USA). Maximum plasma concentration (Cmax) and time to reach Cmax (Tmax) values were obtained from plasma concentration-time curves. The area under the plasma concentration–time curve from zero to infinity (AUC) was calculated using the trapezoidal-extrapolation method. For extrapolation, the area from the last data point to infinity was estimated by dividing the […].
However, in the case of bile-depleted rats, AUC∞ and T1/2 were not calculated because the elimination rate constant could not be obtained.

[3] = Tissue distribution after intravenous administration; assay type: in vivo; settings: rat
Procedure: Jaspine B was dissolved in a vehicle containing DMSO: PEG400: saline (2:4:4, v/v/v) and IV-injected via the femoral vein at a dose of 10 mg/kg (vehicle volume, 1 mL/kg). Blood samples were collected from the abdominal artery and animals were euthanized at 0.5 h and 12 h after IV dosing. The blood, brain, liver, kidney, heart, and spleen were immediately excised, gently washed with ice-cold saline, and weighed. The tissue samples were homogenized with 9 volumes of saline. Aliquots of 50 μL of tissue homogenates and plasma were stored at −80 °C until the analysis.
Aliquots (50 μL) of plasma and tissue homogenates were added to 250 μL of acetonitrile containing 0.5 ng/mL of berberine. After vortexing for 10 min and centrifugation at 13,200 rpm for 5 min, an aliquot (2 μL) of the supernatant was injected directly into the LC-MS/MS system. For the analysis of plasma and tissue concentration, the standard curves with a range of 5–1000 ng/mL in the blank plasma and 10% bank tissue homogenates from brain, liver, kidney, heart, and spleen were prepared, and the concentrations of quality control (QC) samples of respective plasma and tissue homogenates were 25 and 750 ng/mL. The recovery of these spiked QC samples were in the range of 73.6–112.2% in all tissue homogenates. Intra- and inter-day precision and accuracy had coefficients of variance of less than 15%.

[4] = SD, bile depletion + TC 60 mg/kg
[5] = Sprague-Dawley (SD), brain, IV 10 mg/kg, read-out: T/P ratio, brain
[6] = Sprague-Dawley (SD), kidney, IV 10 mg/kg, read-out: T/P ratio, kidney
[7] = Sprague-Dawley (SD), liver, IV 10 mg/kg, read-out: T/P ratio, liver

For `CCCCCCCCCCCCCC[C@@H]1OC[C@H](N)[C@@H]1O` [Jaspine B], the IC50 (786-O) is listed as 29.4 µM, the “metastatic melanoma cell growth in the lungs” value [1] is listed as “dramatically decreased” and the IC50 (MCF-7) is listed as 2.31 µM. For the same compound, the bioavailability [2, 4] was 23.5%, the bioavailability ([2]; SD, bile-depleted rats, from AUC12h) was 1.6% and the bioavailability ([2]; SD, control + TC 60 mg/kg) was 41.2%. It also gave a bioavailability ([2]; SD, control rats) of 6.2%, an AUC(0-inf) [2, 4] of 1200 ± 254 ng·h/mL and an MRT [2, 4] of 4.9 ± 0.5 h. For the same compound, the Tmax [2, 4] was 1 ± 0.5 h, the half-life [2, 4] was 7.2 ± 1.5 h and the AUC(0-t) [2, 4] was 828 ± 180 ng·h/mL. It also gave an MRT ([2]; SD, bile-depleted rats) of 6.1 ± 0.3 h, a Tmax ([2]; SD, bile-depleted rats) of 9.3 ± 2.3 h and an AUC(0-t) ([2]; SD, bile-depleted rats) of 80.3 ± 42.7 ng·h/mL. The AUC(0-inf) ([2]; SD, control + TC 60 mg/kg) was 2100 ± 419 ng·h/mL, the Cmax ([2]; SD, control + TC 60 mg/kg) was 174 ± 13 ng/mL and the MRT ([2]; SD, control + TC 60 mg/kg) was 5.5 ± 0.03 h. It also gave a Tmax ([2]; SD, control + TC 60 mg/kg) of 3.3 ± 2.3 h, a half-life ([2]; SD, control + TC 60 mg/kg) of 6.4 ± 2.8 h and an AUC(0-t) ([2]; SD, control + TC 60 mg/kg) of 1406 ± 4.3 ng·h/mL. For the same compound, the AUC(0-inf) ([2]; SD, control rats) was 314 ± 76.1 ng·h/mL, the MRT ([2]; SD, control rats) was 4.9 ± 0.4 h and the Tmax ([2]; SD, control rats) was 2.5 ± 1.3 h. It also gave a half-life ([2]; SD, control rats) of 5.5 ± 1.1 h, an AUC(0-t) ([2]; SD, control rats) of 241 ± 57.8 ng·h/mL and a Cmax ([2]; Sprague-Dawley, bile depletion + TC 60 mg/kg) of 163 ± 28.4 ng/mL. For the same compound, the Cmax ([2]; Sprague-Dawley, bile-depleted rats) was 8.5 ± 2.8 ng/mL, the Cmax ([2]; Sprague-Dawley, control rats) was 36.3 ± 11.3 ng/mL and the Kp at 0.5 h [3, 5] was 6.2. For the same compound, the Kp at 12 h [3, 5] was 1.8, the Kp at 0.5 h ([3]; Sprague-Dawley (SD), heart, IV 10 mg/kg, read-out: T/P ratio, heart) was 14.4 and the Kp at 0.5 h [3, 6] was 11.1. It also gave a Kp at 12 h [3, 6] of 4.7, a Kp at 0.5 h [3, 7] of 2.3 and a Kp at 12 h [3, 7] of 1.2. The Kp at 0.5 h ([3]; Sprague-Dawley (SD), spleen, IV 10 mg/kg, read-out: T/P ratio, spleen) was 18.5, the Kp at 12 h ([3]; Sprague-Dawley, brain, kidney, heart, spleen, 10 mg/kg, single IV administration, read-out: T/P ratios in brain, kidney, heart and spleen) was 2 to 4 and the Kp at 12 h ([3]; Sprague-Dawley, heart, IV 10 mg/kg, read-out: T/P ratio, heart) was 3.2. It also gave a Kp at 12 h ([3]; Sprague-Dawley, spleen, IV 10 mg/kg, read-out: T/P ratio, spleen) of 3.9.
